# According to ChEMBL document CHEMBL5030507, “Structure-Based Design of a Selective Class I Histone Deacetylase (HDAC) Near-Infrared (NIR) Probe for Epigenetic Regulation Detection in Triple-Negative Breast Cancer (TNBC)” (J Med Chem, 2021):
# Key:
# [1] = Cytotoxicity against human WI-38 cells assessed as cell growth inhibition incubated for 72 hrs by CCK8 assay; type: cell-based
# [2] = Selectivity index, ratio of GI50 for cytotoxicity against human WI-38 cells to GI50 for antiproliferative activity against triple-negative human MDA-MB-231 cells; type: toxicity, cell-based; settings: WI-38 cells versus MDA-MB-231 cells, read-out: RatioGI50
# [3] = Drug distribution in NOD-SCID mouse lung xenografted with triple negative MDA-MB-231 cells at 3 nmol, iv measured 24 hrs post infection by NRI fluorescence imaging analysis; type: ADME, organism-based; settings: in vivo
# [4] = Drug uptake in tumor of athymic nude mouse xenografted with human MDA-MB-231 cells assessed as reduction in tumor to normal tissue ratio at 3 nmol, iv in presence of (12Z,7S,10S)-7- (4-Aminobutyl)-4-ethylidene-10-((E)-4-(heptyldisulfaneyl)but-1-en-1-yl)-9-oxa-3,6,13-triaza-1(4,2)-thiazolacyclotetradecaphane-2,5,8,12-tetraone measured up to 48 hrs by epifluorescence analysis relative to control; type: ADME, organism-based, Neoplasm; settings: in vivo
# Histone deacetylase 1 = Histone deacetylase 1 (Homo sapiens, UniProt Q13547); test: Inhibition of recombinant human C-terminal FLAG/His-tagged HDAC1 (1 to 482 residues) expressed in Sf9 insect cells using fluorometric substrate measured after 60 mins by FRET assay
# Chain of Histone deacetylase 1 (Q13547 whole entry, the tested form may be a part): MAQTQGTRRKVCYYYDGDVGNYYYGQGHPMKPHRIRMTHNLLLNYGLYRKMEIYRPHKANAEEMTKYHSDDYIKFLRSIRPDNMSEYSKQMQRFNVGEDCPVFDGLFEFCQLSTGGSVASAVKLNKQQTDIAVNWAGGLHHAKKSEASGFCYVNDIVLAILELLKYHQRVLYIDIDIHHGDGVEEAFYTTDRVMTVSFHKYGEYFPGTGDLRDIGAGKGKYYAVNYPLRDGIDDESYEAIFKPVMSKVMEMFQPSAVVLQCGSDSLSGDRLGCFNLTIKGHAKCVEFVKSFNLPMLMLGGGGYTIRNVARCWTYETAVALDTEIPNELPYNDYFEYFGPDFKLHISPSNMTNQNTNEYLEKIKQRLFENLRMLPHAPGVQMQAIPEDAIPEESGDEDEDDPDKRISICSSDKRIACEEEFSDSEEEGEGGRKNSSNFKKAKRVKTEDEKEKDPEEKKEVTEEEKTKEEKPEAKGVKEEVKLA
# [5] = biological target: T1, Protein deacetylase HDAC6 (Homo sapiens, UniProt Q9UBN7); test: Inhibition of recombinant human full length N-terminal GST-tagged HDAC6 expressed in Sf9 cells using fluorogenic substrate measured after 60 mins by FRET assay
# T1 sequence (Q9UBN7 whole entry): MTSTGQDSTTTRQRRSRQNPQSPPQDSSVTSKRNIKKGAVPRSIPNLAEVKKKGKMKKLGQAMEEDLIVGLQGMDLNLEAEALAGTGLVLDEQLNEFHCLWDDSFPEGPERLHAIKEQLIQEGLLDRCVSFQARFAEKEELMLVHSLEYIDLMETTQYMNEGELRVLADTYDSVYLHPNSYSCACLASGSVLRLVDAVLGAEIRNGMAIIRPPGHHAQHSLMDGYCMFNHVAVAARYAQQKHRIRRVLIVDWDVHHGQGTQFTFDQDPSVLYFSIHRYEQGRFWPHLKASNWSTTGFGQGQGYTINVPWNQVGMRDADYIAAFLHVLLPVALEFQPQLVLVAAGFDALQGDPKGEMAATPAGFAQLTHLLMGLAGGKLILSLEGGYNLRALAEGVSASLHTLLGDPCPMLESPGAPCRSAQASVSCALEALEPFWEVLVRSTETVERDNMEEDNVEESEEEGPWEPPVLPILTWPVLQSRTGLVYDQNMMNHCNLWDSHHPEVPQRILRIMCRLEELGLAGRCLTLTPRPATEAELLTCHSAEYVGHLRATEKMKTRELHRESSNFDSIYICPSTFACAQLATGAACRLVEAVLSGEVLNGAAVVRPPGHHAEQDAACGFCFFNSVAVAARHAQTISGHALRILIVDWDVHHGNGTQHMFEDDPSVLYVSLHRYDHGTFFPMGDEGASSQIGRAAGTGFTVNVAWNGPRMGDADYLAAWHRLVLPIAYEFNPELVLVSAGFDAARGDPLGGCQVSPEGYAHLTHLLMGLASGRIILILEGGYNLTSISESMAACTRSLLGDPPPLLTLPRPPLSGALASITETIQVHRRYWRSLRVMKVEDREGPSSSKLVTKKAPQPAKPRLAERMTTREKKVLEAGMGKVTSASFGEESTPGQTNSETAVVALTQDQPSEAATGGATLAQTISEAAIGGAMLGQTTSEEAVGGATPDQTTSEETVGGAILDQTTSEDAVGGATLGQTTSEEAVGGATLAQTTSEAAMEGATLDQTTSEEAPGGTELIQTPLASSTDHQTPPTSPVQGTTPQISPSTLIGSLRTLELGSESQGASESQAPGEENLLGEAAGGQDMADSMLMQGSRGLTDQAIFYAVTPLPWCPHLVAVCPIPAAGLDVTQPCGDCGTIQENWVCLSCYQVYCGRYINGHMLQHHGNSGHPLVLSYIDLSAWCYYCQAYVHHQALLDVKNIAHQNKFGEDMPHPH
# Histone deacetylase = test: Inhibition of recombinant HDAC in human HeLa nuclear extracts using fluorogenic substrate measured after 60 mins by FRET assay
# [6] = Drug distribution in triple negative human MDA-MB-231 cells expressing class 1 HDACs assessed as accumulation in nucleus by measuring colocalization of Cy5.5 signal measured for 60 mins by DAPI staining based confocal microscopic analysis; type: ADME, cell-based; settings: mda-mb-231, 1 h
# [7] = Drug uptake in tumor of athymic nude mouse xenografted with human MDA-MB-231 cells at 3 nmol, iv measured 4 hrs post infection by epifluorescence analysis; type: ADME, organism-based, Neoplasm; settings: in vivo
# [8] = (§1) Drug uptake in tumor of athymic nude mouse xenografted with human MDA-MB-231 cells at 3 nmol, iv pretreated with (12Z,7S,10S)-7- (4-Aminobutyl)-4-ethylidene-10-((E)-4-(heptyldisulfaneyl)but-1-en-1-yl)-9-oxa-3,6,13-triaza-1(4,2)-thiazolacyclotetradecaphane-2,5,8,12-tetraone followed by compound addition and measured up to 48 hrs by epifluorescence analysis; type: ADME, organism-based, Neoplasm; settings: in vivo
# [9] = Drug uptake in tumor of athymic nude mouse xenografted with human MDA-MB-231 cells at 3 nmol, iv pretreated with SAHA for 3 days followed by compound addition and measured up to 48 hrs by epifluorescence analysis; type: ADME, organism-based, Neoplasm; settings: in vivo
# [10] = Drug uptake in triple negative human MDA-MB-231 cells overexpressing class 1 HDACs at 1.5 uM in presence of (12Z,7S,10S)-7- (4-Aminobutyl)-4-ethylidene-10-((E)-4-(heptyldisulfaneyl)but-1-en-1-yl)-9-oxa-3,6,13-triaza-1(4,2)-thiazolacyclotetradecaphane-2,5,8,12-tetraone measured after 60 mins by DAPI staining based confocal microscopic analysis; type: ADME, cell-based; settings: mda-mb-231, 1 h
# Homo sapiens = species on record: Homo sapiens; test: Selectivity index, ratio of IC50 for inhibition of recombinant HDAC in human HeLa nuclear extracts to IC50 for inhibition of recombinant human C-terminal FLAG/His-tagged HDAC1 (1 to 482 residues) expressed in Sf9 insect cells
# [11] = Biodistribution in tumor of athymic nude mouse xenografted with human MDA-MB-231 cells assessed as fluorescence intensity at 3 nmol, iv measured 48 hrs post infection by epifluorescence analysis; type: ADME, organism-based, Neoplasm; settings: in vivo
# [12] = as §1, with “Biodistribution” for “Drug uptake”, “cells assessed as fluorescence intensity” for “cells”, “after” for “up to”; type: ADME, organism-based, Neoplasm; settings: in vivo
# [13] = Biodistribution in tumor of athymic nude mouse xenografted with human MDA-MB-231 cells assessed as fluorescence intensity at 3 nmol, iv pretreated with SAHA for 3 days followed by compound addition and measured up to 48 hrs by epifluorescence analysis; type: ADME, organism-based, Neoplasm; settings: in vivo
# [14] = Biodistribution in kidney of athymic nude mouse xenografted with human MDA-MB-231 cells assessed as fluorescence intensity at 3 nmol, iv measured 48 hrs post infection by epifluorescence analysis; type: ADME, organism-based; settings: in vivo
# [15] = Drug distribution in NOD-SCID mouse lung xenografted with triple negative MDA-MB-231 cells assessed as accumulation in metastatic lungs by measuring increase in fluorescence intensity at 3 nmol, iv measured 24 hrs post infection by NRI fluorescence imaging analysis (Rvb= 2.2+/- 0.5 10^9/s/cm2); type: ADME, organism-based; settings: in vivo
# [16] = biological target: Histone deacetylase 3/Nuclear receptor corepressor 2 (HDAC3/NCoR2) (Homo sapiens, UniProt O15379); test: Inhibition of C-terminal His-tagged recombinant human HDAC3 (1 to 428 residues)/N-terminal GST-tagged recombinant human NCoR2 (395 to 489 residues) co-expressed in baculovirus infected Sf9 cells using fluorometric substrate measured after 60 mins by FRET assay
# Chain of Histone deacetylase 3/Nuclear receptor corepressor 2 (HDAC3/NCoR2) (O15379 whole entry, the tested form may be a part): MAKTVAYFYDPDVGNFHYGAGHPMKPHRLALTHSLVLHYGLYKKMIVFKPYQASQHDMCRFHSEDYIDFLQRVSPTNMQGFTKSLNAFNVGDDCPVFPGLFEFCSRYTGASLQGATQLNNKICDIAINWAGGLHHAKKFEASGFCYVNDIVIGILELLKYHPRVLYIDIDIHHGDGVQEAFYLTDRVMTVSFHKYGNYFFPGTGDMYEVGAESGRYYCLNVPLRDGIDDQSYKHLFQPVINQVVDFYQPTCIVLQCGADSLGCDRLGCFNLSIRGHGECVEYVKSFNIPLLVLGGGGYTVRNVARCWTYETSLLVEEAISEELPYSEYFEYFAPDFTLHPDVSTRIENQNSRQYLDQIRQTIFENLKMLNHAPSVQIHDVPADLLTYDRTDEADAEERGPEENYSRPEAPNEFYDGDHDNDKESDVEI
# Chain of Histone deacetylase 3/Nuclear receptor corepressor 2 (HDAC3/NCoR2) (Q9Y618 whole entry, further chain, the tested form may be a part): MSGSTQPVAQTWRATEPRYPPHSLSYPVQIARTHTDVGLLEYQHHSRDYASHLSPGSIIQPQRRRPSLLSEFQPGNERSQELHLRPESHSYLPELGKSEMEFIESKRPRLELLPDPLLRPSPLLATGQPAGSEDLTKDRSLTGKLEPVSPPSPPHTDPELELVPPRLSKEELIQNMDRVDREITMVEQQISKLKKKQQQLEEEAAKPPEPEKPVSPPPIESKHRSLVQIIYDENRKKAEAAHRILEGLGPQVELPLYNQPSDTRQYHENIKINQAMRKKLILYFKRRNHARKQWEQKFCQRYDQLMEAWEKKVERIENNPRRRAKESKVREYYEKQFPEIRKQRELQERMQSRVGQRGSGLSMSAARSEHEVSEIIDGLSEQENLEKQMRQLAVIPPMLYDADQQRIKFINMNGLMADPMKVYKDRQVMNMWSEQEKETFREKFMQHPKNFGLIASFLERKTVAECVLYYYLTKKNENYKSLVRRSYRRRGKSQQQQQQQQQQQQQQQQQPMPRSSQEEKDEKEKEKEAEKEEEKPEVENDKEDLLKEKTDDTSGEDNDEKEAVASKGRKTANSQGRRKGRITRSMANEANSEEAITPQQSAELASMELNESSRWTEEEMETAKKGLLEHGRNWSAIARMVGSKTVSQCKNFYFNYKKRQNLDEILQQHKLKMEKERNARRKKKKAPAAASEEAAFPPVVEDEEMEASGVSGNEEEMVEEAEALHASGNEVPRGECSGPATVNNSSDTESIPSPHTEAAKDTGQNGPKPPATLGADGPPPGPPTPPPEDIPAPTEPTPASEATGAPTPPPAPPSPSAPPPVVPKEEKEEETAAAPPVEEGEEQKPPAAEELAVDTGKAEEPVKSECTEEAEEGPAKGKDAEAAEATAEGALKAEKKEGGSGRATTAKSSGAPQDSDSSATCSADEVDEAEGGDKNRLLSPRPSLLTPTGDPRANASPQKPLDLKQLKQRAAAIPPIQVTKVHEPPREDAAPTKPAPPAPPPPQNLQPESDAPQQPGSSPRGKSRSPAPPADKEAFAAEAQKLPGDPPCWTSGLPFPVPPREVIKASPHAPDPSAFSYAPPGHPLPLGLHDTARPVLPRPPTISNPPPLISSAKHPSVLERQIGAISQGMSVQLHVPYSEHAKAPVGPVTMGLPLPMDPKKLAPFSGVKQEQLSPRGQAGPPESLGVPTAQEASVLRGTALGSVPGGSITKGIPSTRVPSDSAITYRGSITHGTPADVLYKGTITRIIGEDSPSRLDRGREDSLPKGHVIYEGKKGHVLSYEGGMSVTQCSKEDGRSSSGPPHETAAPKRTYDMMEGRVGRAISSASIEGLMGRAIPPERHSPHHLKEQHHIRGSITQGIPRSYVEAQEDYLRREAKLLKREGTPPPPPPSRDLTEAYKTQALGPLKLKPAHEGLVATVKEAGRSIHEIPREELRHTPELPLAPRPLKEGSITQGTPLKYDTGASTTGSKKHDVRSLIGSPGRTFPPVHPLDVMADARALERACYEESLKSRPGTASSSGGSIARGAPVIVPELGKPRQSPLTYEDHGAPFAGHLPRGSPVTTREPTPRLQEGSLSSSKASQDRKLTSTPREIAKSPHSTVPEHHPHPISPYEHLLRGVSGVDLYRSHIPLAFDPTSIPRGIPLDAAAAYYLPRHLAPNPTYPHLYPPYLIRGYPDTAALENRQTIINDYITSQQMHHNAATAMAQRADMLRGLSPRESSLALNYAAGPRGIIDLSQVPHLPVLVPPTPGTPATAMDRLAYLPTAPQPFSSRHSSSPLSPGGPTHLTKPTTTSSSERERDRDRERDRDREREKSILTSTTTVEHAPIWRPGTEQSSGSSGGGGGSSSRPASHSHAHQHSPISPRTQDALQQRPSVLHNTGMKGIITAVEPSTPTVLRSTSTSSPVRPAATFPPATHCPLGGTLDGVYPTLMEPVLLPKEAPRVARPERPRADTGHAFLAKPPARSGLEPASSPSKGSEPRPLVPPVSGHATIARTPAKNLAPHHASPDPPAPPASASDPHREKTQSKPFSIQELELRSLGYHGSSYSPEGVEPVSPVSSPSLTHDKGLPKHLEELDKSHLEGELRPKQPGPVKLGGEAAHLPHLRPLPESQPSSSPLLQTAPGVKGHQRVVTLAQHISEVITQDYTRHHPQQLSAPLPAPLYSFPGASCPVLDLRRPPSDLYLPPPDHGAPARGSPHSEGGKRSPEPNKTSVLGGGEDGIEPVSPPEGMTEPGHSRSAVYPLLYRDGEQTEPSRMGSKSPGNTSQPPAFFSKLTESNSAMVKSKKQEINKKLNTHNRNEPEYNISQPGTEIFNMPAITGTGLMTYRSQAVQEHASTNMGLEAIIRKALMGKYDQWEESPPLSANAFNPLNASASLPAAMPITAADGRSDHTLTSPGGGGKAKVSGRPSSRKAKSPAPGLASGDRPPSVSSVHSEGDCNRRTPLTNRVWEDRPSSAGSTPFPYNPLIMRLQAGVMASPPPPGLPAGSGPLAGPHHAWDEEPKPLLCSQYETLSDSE
# Histone deacetylase 2 = Histone deacetylase 2 (Homo sapiens, UniProt Q92769); test: biochemical; type: cell-based, Sf9
# Chain of Histone deacetylase 2 (Q92769 whole entry): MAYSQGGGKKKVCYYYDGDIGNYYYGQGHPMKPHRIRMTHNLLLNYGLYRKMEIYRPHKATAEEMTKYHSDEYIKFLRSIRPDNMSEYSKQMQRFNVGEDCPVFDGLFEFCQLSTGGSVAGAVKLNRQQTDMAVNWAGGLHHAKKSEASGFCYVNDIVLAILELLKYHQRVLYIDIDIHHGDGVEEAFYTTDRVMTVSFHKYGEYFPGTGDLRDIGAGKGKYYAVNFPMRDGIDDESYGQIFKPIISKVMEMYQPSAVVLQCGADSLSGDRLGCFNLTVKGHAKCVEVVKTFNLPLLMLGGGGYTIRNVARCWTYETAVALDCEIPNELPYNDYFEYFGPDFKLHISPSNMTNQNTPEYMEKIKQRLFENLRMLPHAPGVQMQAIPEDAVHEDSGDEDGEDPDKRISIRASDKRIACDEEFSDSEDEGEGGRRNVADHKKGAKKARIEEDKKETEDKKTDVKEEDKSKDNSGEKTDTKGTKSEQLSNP
# Description: Inhibition of recombinant human full length C-terminal His- tagged HDAC2 (1 to 488 residues) expressed in Sf9 insect cells using fluorometric substrate measured after 60 mins by FRET assay
# Histone deacetylase 8 = biological target: T2, Histone deacetylase 8 (Homo sapiens, UniProt Q9BY41); test: Inhibition of recombinant human full length C-terminal His-tagged HDAC8 expressed in baculovirus infected Sf9 insect cells using fluorometric substrate measured after 60 mins by FRET assay
# T2 sequence (Q9BY41 whole entry): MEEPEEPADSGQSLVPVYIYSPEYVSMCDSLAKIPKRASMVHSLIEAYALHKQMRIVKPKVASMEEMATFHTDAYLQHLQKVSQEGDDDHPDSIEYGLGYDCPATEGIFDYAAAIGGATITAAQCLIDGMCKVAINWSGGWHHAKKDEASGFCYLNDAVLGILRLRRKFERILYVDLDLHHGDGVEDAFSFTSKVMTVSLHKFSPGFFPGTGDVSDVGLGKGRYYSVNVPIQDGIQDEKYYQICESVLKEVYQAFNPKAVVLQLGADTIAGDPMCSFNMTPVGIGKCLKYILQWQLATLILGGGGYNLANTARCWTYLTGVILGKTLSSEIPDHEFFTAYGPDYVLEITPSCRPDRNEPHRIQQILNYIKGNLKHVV
# [17] = biological target: T3, Polyamine deacetylase HDAC10 (Homo sapiens, UniProt Q969S8); test: Inhibition of recombinant human N-terminal FLAG tagged HDAC10 (2 to 631 residues) expressed in baculovirus infected Sf9 insect cells using fluorogenic substrate measured after 60 mins by FRET assay
# T3 sequence (Q969S8 whole entry): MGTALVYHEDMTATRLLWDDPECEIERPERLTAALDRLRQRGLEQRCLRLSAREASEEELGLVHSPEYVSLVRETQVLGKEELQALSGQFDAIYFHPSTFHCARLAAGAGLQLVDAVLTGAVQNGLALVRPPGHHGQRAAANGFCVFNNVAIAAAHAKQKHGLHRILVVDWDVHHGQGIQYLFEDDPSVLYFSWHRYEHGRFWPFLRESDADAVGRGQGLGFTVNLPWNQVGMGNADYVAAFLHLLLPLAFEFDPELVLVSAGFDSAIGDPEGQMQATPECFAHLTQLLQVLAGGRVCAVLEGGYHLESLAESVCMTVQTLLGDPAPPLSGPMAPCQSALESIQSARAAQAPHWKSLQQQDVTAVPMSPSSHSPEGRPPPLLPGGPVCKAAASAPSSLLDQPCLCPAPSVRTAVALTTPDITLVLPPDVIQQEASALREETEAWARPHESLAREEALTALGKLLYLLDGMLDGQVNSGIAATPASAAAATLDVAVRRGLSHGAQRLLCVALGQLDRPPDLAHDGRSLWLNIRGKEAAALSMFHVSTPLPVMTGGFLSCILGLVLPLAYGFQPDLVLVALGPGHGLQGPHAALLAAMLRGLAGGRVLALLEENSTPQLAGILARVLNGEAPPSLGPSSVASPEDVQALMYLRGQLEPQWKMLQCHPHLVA
# MDA-MB-231 = test: Antiproliferative activity against triple-negative human MDA-MB-231 cells assessed as cell growth inhibition incubated for 72 hrs by CCK8 assay; type: functional
compound,measurement,setting,value
C/C=C1\NC(=O)[C@H]2CSSCC/C=C/[C@H](CC(=O)N[C@H](C(C)C)C(=O)N2)OC(=O)[C@H](C(C)C)NC1=O [ROMIDEPSIN],GI50 at 72 h,[1],30.1 nM
same,selectivity ratio,[2],3.1
C/C=C1\NC(=O)c2csc(n2)CNC(=O)C[C@@H](/C=C/CCSSCCCCCCC)OC(=O)[C@H](CCCCNC(=O)CCCCC[N+]2=C(/C=C/C=C/C=C3/N(CC)c4ccc5c(S(=O)(=O)O)cc(S(=O)(=O)O)cc5c4C3(C)C)C(C)(C)c3c2ccc2c(S(=O)(=O)[O-])cc(S(=O)(=O)O)cc32)NC1=O,Drug uptake,[3],Active
same,Drug uptake,[4],70%
same,IC50,Histone deacetylase 1,8 nM
same,IC50,[5],70 nM
same,IC50,Histone deacetylase,824 nM
same,Drug uptake,[6],Active
same,Drug uptake,[7],Active
same,Drug uptake,[8],Not Active
same,Drug uptake,[9],Not Active
same,Drug uptake,[10],Not Active
same,Ratio IC50,Homo sapiens,100
same,Flu intensity,[11],3.13 10^9/s/cm2
same,Flu intensity,[12],1.95 10^9/s/cm2
same,Flu intensity,[13],1.33 10^9/s/cm2
same,Flu intensity,[14],3.06 10^9/s/cm2
same,Flu intensity,[15],8 10^9/s/cm2
C/C=C1\NC(=O)c2csc(n2)CNC(=O)C[C@@H](/C=C/CCSC(=O)CCCCCCC)OC(=O)[C@H](C(C)C)NC1=O,IC50,Histone deacetylase 1,3.1 nM
same,IC50,[16],8.9 nM
same,IC50,Histone deacetylase 2,5.3 nM
same,IC50,Histone deacetylase 8,3960 nM
same,IC50,[5],1810 nM
same,IC50,[17],37 nM
same,GI50,MDA-MB-231,11.3 nM
same,GI50 at 72 h,[1],363 nM
same,selectivity ratio,[2],32
